The record followed here is patent publication US20250121076A1, “POLYPEPTIDE DRUG CONJUGATE HAVING NOVEL STRUCTURE AND APPLICATION THEREOF” (MEDSHINE DISCOVERY INC., priority 2021, published 2025).

Data set [1] addresses T1, Human EphA2 (Homo sapiens, UniProt P29317).
T1 construct: purchased Sino Biological 13926-H08HD
The data set can be described thus: Binding capacity test to EphA2 protein (SPR, Biacore 8K). As for the experimental part: To detect the affinity of the compound to be tested to the target protein EphA2 using the SPR method.
• Biacore 8K (GE Healthcare). • 96-well Plate (Cat #650101, greiner bio-one) • CM5 chip (Cat #BR-1005-30, GE Healthcare) • Amine Coupling Kit (Cat #BR-1000-50, GE Healthcare) EDC NHS 1 M ethanolamine. • 10 mM sodium acetate pH 4.5 (Cat #BR-1003-50, GE Healthcare) • DMSO (Cat #D4540, Sigma) • P20 (Cat #BR-1000-54, GE Healthcare). • PBS (Cat #BR-1006-72, GE Healthcare). • EphA2 (Cat #13926-H08HD, Sino Biological)
In this experiment, the amino coupling method was used. The target protein EphA2 was directly immobilized on the CM5 chip using Biacore 8K. The compound to be tested as an analyte was then diluted to a required concentration gradient with a buffer (10 mM PBS, pH 7.4, 137 mM NaCl, 2.7 mM KCl, 5% DMSO, and 0.05% P20) for multi-cycle kinetic detection, in which each cycle is formed by 180 seconds of sample injection and 180 seconds of dissociation, and then the next cycle was performed, to obtain kinetic analysis data on the affinity of the target protein EphA2 to the compound to be tested. The final data were subjected to Kinetics fitting analysis based on a 1:1 model using Biacore Insight Evaluation Software (V 2.0.15.12933).
1) Preparation of the buffer: 10 mM PBS, pH 7.4, 137 mM NaCl, 2.7 mM KCl, 5% DMSO, and 0.05% P20.
2) Activation of the CM5 chip: The CM5 chip was activated with 400 mM EDC and 100 mM NHS at a flow rate of 10 μL/min for 420 seconds.
3) Coupling of the target protein: The target protein was diluted to 10 μg/mL with 10 mM sodium acetate (pH 4.5) and coupled at a flow rate of 10 μL/min for 284 s. The 1 #, 2 #, and 3 #channels on the chip were used in the experiment, and the coupling results were 1639.9RU, 1747.8RU, and 1702.2RU, respectively.
4) Blocking of the CM5 chip: The CM5 chip was blocked with 1 M ethanolamine at a flow rate of 10 μL/min for 420 seconds.
5) Analyte concentration: The compound to be tested was diluted with the buffer. The compound to be tested was diluted from 100 nM to 0.78 nM in a 2-fold gradient.
6) Sample injection analysis: Each concentration of the working solution of the compound to be tested corresponded to one cycle, with a flow rate of 30 μL/min for binding for 180 seconds and dissociating for 180 seconds. The last cycle was a 5% DMSO solvent correction cycle. 7) All results were subjected to kinetics fitting analysis based on a 1:1 model.
The experimental data of five effective concentrations of the compounds of the present invention were selected for Kinetics fitting analysis based on a 1:1 model using Biacore Insight Evaluation Software (V 2.0.15.12933).
A general note: Surface plasmon resonance follows binding to a sensor surface in real time, without labels.

A short description of data set [2]: Pharmacokinetic analysis in rat plasma (6.1, 2 mg/kg). The class given is in vivo, SD rats. The following applies: MMAE as potential metabolite in plasma after single IV 2 mg/kg acetate salt of PDC_8, SD rats. As for the experimental part: (§1) Experimental purpose: To test the pharmacokinetics of the compounds of the present invention in SD rats.
(§2) 6.1 The pharmacokinetic characteristics of the compound after intravenous injection and oral administration were tested in rats according to a standard protocol. The compound to be tested was formulated into a clear solution using 50 mM acetate buffer (pH=5) in 10% sucrose as a vehicle. Two SD rats were given a single intravenous injection of 2 mg/kg of the compound to be tested. Whole blood was collected at time points of 0.083, 0.25, 0.5, 1, 2, 4, 8, and 24 hours after administration to get plasma. The concentration of the compound to be tested and the concentration of its potential metabolite MMAE were analyzed by the LC-MS/MS method, and the pharmacokinetic parameters were calculated by Phoenix WinNonlin software.

Data set [3] is described as follows: Pharmacokinetic analysis in rat plasma at different doses (6.2). The class given is in vivo, SD rats. The procedure: as §1
as §2, with “6.2 The” for “6.1 The”, “vehicle. Three male” for “vehicle. Two”, “of 2.5 mg/kg, 3.75 mg/kg, or 5” for “of 2”, “1,” for “1, 2,”, “4,” for “4, 8,”, “were calculated.” for “were calculated by Phoenix WinNonlin software.”

Data set [4] in a line: In vivo pharmacokinetic analysis in mice. More on the design: species or system CD-1 mice. The following applies: MMAE as potential metabolite in plasma after single IV 2 mg/kg acetate salt of PDC_8, CD-1 mice. The procedure: To test the pharmacokinetics of the compounds of the present invention in CD-1 mice
The pharmacokinetic characteristics of the compound after intravenous injection and oral administration were tested in CD-1 mice according to a standard protocol. The compound of the present invention was formulated into a clear solution using 50 mM acetate buffer (pH=5) in 10% sucrose as a vehicle. Two mice were given a single intravenous injection of 2 mg/kg of the compound to be tested. Whole blood was collected at time points of 0.083, 0.25, 0.5, 1, 2, 4, 8, and 24 hours after administration to get plasma. The concentration of the compound to be tested and the concentration of its potential metabolite MMAE were analyzed by the LC-MS/MS method, and the pharmacokinetic parameters, such as maximal concentration (Cmax), clearance (Cl), half-life (T1/2), […] (Vdss), and area under the concentration-time curve (AUC0-last), were calculated by Phoenix WinNonlin software.

Data set [5] in a line: Pharmacokinetic analysis in Cynomolgus macaque plasma. In kind it is in vivo, Cynomolgus macaques. The following applies: MMAE as potential metabolite in plasma after single IV 1 mg/kg acetate salt of PDC_8, Cynomolgus macaques. As for the experimental part: To test the pharmacokinetics of the compounds of the present invention in Cynomolgus macaques.
as §2, with “The pharmacokinetic” for “6.1 The pharmacokinetic”, “tested in Cynomolgus macaques according to” for “tested in rats according to”, “The compound of the present invention was formulated” for “The compound to be tested was formulated”, “vehicle. Two Cynomolgus macaques were given” for “vehicle. Two SD rats were given”, “injection of 1 mg/kg of” for “injection of 2 mg/kg of”

The mark [6] stands for this setting: MMAE as potential metabolite after single IV 2.5 mg/kg acetate salt of PDC_8, male SD rats.
Setting [7] is: MMAE as potential metabolite after single IV 3.75 mg/kg acetate salt of PDC_8, male SD rats.
The mark [8] stands for this setting: MMAE as potential metabolite after single IV 5 mg/kg acetate salt of PDC_8, male SD rats.

The structures appear in SMILES notation. Counter-ions that a name gives are not always drawn. Like-named read-outs stand apart in the source and are kept apart here. Starred links: 1 amine or outer side, 2 acyl side, 3 side chain; linkers in the order of their positions; H or OH if unused. Positions of bridges follow the written chain, without caps; N, C: chain ends. Non-standard residues stand in square brackets, D forms with d. Residues, ends and D or L forms follow the SMILES beside them. Chains are numbered I, II in the order given. *: point of attachment. TATA = O=C(CC[*:1])N1CN(C(=O)CC[*:2])CN(C(=O)CC[*:3])C1; Dolaproine = CO[C@@H]([C@@H]1CCCN1)[C@@H](C)C(=O)O; Dil = CC[C@H](C)[C@H](NC)[C@@H](CC(=O)O)OC; X2 = O=C(CCCC(=O)[*:2])NCCC(=O)[*:1]; PABC = O=C(OCc1ccc(N[*:1])cc1)[*:2]; X1 = C[C@@H](N*)[C@@H](O)c1ccccc1; Hyp = O=C(O)[C@@H]1C[C@@H](O)CN1; hArg = N=C(N)NCCCC[C@H](N)C(=O)O; Cit = NC(=O)NCCC[C@H](N)C(=O)O; NMeV = CN[C@H](C(=O)O)C(C)C; hCys = N[C@@H](CCS)C(=O)O; Sar = CNCC(=O)O

T1 sequence (P29317 24-534 limits assumed): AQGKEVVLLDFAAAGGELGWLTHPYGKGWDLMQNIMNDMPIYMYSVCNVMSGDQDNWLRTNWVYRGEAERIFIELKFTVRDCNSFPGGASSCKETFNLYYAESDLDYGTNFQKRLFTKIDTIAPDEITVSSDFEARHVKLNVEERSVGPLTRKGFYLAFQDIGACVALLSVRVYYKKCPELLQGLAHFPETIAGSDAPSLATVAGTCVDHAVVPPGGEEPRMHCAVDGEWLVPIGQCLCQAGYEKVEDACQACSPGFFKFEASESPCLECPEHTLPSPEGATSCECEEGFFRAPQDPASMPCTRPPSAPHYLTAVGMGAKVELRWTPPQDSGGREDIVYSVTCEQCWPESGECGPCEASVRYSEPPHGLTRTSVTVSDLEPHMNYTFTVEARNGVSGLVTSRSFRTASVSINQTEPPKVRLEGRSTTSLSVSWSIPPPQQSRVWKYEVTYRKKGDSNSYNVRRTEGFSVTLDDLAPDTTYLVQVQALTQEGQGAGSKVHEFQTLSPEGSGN

Turning to `CC[C@H](C)[C@@H]([C@@H](CC(=O)N1CCC[C@H]1[C@H](OC)[C@@H](C)C(=O)N[C@H](C)[C@@H](O)c1ccccc1)OC)N(C)C(=O)[C@@H](NC(=O)[C@H](C(C)C)N(C)C(=O)OCc1ccc(NC(=O)[C@H](CCCNC(N)=O)NC(=O)[C@@H](NC(=O)CCCC(=O)NCCC(=O)N(C)CC(=O)N(C)CC(=O)N(C)CC(=O)N(C)CC(=O)N(C)CC(=O)N(C)CC(=O)N(C)CC(=O)N(C)CC(=O)N(C)CC(=O)N(C)CC(=O)N[C@@H](C)C(=O)N[C@@H](CCCCNC(=N)N)C(=O)N[C@@H](CC(=O)O)C(=O)N[C@H]2CCSCCC(=O)N3CN4CN(C3)C(=O)CCSC[C@H](NC(=O)[C@H](CC(C)C)NC(=O)[C@@H]3CCCN3C(=O)[C@H](CC(N)=O)NC(=O)[C@H](C(C)C)NC(=O)[C@H](CC(C)C)NC(=O)[C@@H]3C[C@@H](O)CN3C2=O)C(=O)N[C@@H](CC(C)C)C(=O)N[C@@H](Cc2c[nH]cn2)C(=O)N2CCC[C@H]2C(=O)N[C@H](CC(=O)O)C(=O)N[C@@H](Cc2c[nH]c3ccccc23)C(=O)N[C@@H](CCCCNC(=N)N)C(=O)N[C@H](C(N)=O)CSCCC4=O)C(C)C)cc1)C(C)C` [Acetate salt of PDC_2, MMAE-PABC-Cit-Val-Glutaryl-β-Ala-Sar10-Ala-hArg-Asp-hCys-Hyp-Leu-Val-Asn-Pro-Leu-Cys-Leu-His-Pro-dAsp-Trp-hArg-Cys-NH2, TATA] (I: [Sar][Sar][Sar][Sar][Sar][Sar][Sar][Sar][Sar][Sar]A[hArg]D[hCys][Hyp]LVNPLCLHP[dD]W[hArg]C-NH2 / II: V[Cit][PABC][NMeV]V[Dil][Dolaproine]-X1; linker I:14-I:21-I:28 via TATA; linker I:N-II:N via X2), the Kd (as a rule, the constant that tells how readily two partners part at equilibrium) in data set [1] (read-out: Human EphA2 SPR kD, SPR, kinetics fit 1:1 model) was 33 nM.

With `CC[C@H](C)[C@@H]([C@@H](CC(=O)N1CCC[C@H]1[C@H](OC)[C@@H](C)C(=O)N[C@H](C)[C@@H](O)c1ccccc1)OC)N(C)C(=O)[C@@H](NC(=O)[C@H](C(C)C)N(C)C(=O)OCc1ccc(NC(=O)[C@H](CCCNC(N)=O)NC(=O)[C@@H](NC(=O)CCCC(=O)NCCC(=O)N(C)CC(=O)N(C)CC(=O)N(C)CC(=O)N(C)CC(=O)N(C)CC(=O)N(C)CC(=O)N(C)CC(=O)N(C)CC(=O)N(C)CC(=O)N(C)CC(=O)N[C@H]2CCCCNC(=O)C[C@@H](C(=O)N[C@H]3CSCCC(=O)N4CN5CN(C4)C(=O)CCSC[C@H](NC(=O)[C@H](CC(C)C)NC(=O)[C@@H]4CCCN4C(=O)[C@H](CC(N)=O)NC(=O)[C@H](C(C)C)NC(=O)[C@H](CC(C)C)NC(=O)[C@@H]4C[C@@H](O)CN4C3=O)C(=O)N[C@@H](CC(C)C)C(=O)N[C@@H](Cc3c[nH]cn3)C(=O)N3CCC[C@H]3C(=O)N[C@H](CC(=O)O)C(=O)N[C@@H](Cc3c[nH]c4ccccc34)C(=O)N[C@@H](CCCCNC(=N)N)C(=O)N[C@H](C(N)=O)CSCCC5=O)NC(=O)[C@H](CCCCNC(=N)N)NC2=O)C(C)C)cc1)C(C)C` [Acetate salt of PDC_4] (I: [Sar][Sar][Sar][Sar][Sar][Sar][Sar][Sar][Sar][Sar]K[hArg]DC[Hyp]LVNPLCLHP[dD]W[hArg]C-NH2 / II: V[Cit][PABC][NMeV]V[Dil][Dolaproine]-X1; lactam I:11-I:13; linker I:14-I:21-I:28 via TATA; linker I:N-II:N via X2), binding in data set [1] was characterised by a dissociation constant (Kd) of 13.3 nM.

Consider `CC[C@H](C)[C@@H]([C@@H](CC(=O)N1CCC[C@H]1[C@H](OC)[C@@H](C)C(=O)N[C@H](C)[C@@H](O)c1ccccc1)OC)N(C)C(=O)[C@@H](NC(=O)[C@@H](NC)C(C)C)C(C)C` [MMAE, monomethyl auristatin E] (H-[NMeV]V[Dil][Dolaproine]-X1), for which the “AUC0-last” value in data set [2] was 0.0374 µM·h; in data set [3] (setting [6]), 0.058 µM·h; in data set [3] (setting [7]), 0.185 µM·h; in data set [3] (setting [8]) it was 0.435 µM·h; in data set [4], 0.0515 µM·h; in data set [5] it was 0.0288 µM·h. The Cmax – broadly, the peak of the concentration-time curve – worked out at 23.5 nM in data set [2]; 29 nM in data set [3] (setting [6]); 39 nM in data set [3] (setting [7]); 52 nM in data set [3] (setting [8]); 55 nM in data set [4]; 5.6 nM in data set [5].
